# How the values were obtained:
# Adrenergic α1B = target: T1, Adrenergic α1B (Rattus norvegicus, UniProt P15823); assay: Radioligand binding assay, Adrenergic α1B
# T1 sequence (P15823 1-515): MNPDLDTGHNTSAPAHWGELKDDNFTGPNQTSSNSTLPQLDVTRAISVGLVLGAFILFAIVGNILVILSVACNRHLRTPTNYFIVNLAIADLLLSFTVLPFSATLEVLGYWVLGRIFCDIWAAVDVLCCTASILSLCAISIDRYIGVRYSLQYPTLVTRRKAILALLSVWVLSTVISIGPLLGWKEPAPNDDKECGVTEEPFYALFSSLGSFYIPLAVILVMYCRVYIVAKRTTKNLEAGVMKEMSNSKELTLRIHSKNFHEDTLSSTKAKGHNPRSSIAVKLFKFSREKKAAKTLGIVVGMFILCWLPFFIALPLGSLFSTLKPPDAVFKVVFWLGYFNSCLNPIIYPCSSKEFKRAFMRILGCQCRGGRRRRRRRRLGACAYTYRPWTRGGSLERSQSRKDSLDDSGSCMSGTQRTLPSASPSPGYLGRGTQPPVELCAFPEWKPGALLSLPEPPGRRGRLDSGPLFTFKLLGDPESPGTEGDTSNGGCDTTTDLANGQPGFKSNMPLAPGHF
# Description: (§1) . Table 1 provides data produced via a receptor binding assay and IC50 and Ki determination. […] In addition, the compound of formula (Ia) has a potent DAT inhibition, which is indicative of dopaminergic uptake inhibition and increased DA activity. In addition to the effect on SERT and DAT, the compound of formula (Ia) inhibited the transporter of Norepinephrine (NET), and several neurotransmitter's receptors like alpha2A and alpha2C receptors, alpha 1A and alphal C, 5HT2A and 5HT2C, signal histamine2 and dopamine D1. This specific profile is in line with the data on antidepressant, anxiolytic and moderate neuro-stimulation activity observed in the animal model studies.
# (§2) With regard to the data provided in Table 1, the biochemical assay results are presented as the percent inhibition of specific binding or activity throughout the report. For primary assays, only the lowest concentration with a significant response judged by the assays’ criteria, is shown in this summary. […] Unless otherwise requested, primary screening in duplicate with quantitative data (e.g., IC50±SEM, Ki±SEM and nH) are shown.
# Sigma σ1 = Sigma σ1 (Homo sapiens, UniProt Q99720); assay: Radioligand binding assay, Sigma σ1
# Sigma σ1, sequence (Q99720 whole entry): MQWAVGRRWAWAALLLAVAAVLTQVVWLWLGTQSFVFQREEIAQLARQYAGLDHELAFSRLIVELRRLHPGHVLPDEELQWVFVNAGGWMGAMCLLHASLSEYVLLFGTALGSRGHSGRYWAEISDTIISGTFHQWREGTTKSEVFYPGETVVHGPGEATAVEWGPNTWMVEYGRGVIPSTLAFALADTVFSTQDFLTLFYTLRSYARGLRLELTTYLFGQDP
# Description: as §1, §2
# [1] = target: Transporter, Norepinephrine (NET) (Homo sapiens, UniProt P23975); assay: Radioligand binding assay, Norepinephrine transporter
# Transporter, Norepinephrine (NET), sequence (P23975 whole entry): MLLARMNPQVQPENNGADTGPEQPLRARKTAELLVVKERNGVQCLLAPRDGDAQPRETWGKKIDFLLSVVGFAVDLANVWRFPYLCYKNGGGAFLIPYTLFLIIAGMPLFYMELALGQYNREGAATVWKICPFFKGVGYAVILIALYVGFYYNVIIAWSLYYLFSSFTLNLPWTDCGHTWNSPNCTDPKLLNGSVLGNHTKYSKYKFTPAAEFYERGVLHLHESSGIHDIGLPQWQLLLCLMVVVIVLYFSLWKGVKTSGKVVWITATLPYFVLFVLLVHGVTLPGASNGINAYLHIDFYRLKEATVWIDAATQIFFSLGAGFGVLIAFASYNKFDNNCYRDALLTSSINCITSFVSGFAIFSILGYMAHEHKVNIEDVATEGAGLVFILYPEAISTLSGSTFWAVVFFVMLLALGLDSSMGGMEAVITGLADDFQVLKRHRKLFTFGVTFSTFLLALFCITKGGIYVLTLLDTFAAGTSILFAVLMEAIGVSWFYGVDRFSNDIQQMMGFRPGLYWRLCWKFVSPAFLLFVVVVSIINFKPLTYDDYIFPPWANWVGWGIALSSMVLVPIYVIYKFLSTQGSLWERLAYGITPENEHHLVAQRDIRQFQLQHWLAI
# Description: as §1, §2
# [2] = target: Serotonin (5-Hydroxytryptamine) 5-HT6 (Homo sapiens, UniProt P50406); assay: Radioligand binding assay, 5-HT6
# Serotonin (5-Hydroxytryptamine) 5-HT6, sequence (P50406 whole entry): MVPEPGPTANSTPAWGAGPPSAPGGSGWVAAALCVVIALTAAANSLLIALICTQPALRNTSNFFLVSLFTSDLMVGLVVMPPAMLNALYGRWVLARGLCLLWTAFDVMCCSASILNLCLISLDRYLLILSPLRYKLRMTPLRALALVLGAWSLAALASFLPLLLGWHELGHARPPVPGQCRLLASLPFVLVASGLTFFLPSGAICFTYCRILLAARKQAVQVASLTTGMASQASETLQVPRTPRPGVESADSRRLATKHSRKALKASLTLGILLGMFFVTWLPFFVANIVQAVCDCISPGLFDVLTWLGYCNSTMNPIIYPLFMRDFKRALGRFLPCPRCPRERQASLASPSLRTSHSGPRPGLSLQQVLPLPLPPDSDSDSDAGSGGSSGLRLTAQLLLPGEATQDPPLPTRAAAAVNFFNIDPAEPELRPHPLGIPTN
# Description: as §1, §2
# Dopamine D1 = Dopamine D1 (Homo sapiens, UniProt P21728); assay: Radioligand binding assay, Dopamine D1
# Dopamine D1, sequence (P21728 whole entry): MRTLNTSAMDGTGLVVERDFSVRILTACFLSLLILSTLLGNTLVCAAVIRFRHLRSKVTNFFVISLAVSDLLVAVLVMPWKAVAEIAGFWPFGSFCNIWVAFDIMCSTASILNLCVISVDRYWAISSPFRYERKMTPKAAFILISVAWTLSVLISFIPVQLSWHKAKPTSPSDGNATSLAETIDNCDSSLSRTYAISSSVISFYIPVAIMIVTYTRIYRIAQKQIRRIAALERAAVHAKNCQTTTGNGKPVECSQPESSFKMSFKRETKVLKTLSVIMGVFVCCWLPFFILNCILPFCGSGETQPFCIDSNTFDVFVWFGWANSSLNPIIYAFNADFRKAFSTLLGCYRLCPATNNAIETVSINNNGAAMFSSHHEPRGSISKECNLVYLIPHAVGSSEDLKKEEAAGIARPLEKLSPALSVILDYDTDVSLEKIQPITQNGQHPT
# Description: as §1, §2
# Adrenergic α1A = target: T2, Adrenergic α1A (Rattus norvegicus, UniProt P43140); assay: Radioligand binding assay, Adrenergic α1A
# T2 sequence (P43140 1-466): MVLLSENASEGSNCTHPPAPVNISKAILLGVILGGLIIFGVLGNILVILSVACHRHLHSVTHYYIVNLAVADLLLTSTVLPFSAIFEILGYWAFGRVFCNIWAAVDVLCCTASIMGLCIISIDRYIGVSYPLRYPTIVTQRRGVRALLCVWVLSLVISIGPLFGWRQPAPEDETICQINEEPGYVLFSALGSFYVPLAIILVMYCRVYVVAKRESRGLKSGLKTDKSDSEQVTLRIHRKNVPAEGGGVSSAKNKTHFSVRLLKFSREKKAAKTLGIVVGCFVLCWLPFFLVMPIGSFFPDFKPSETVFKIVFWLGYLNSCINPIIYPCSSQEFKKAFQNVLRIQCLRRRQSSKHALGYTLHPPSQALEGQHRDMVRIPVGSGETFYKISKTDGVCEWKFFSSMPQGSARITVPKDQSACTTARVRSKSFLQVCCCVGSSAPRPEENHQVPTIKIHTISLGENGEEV
# Description: as §1, §2
# [3] = target: T3, Serotonin (5-Hydroxytryptamine) 5-HT2C (Homo sapiens, UniProt P28335); assay: Radioligand binding assay, 5-HT2C
# T3 sequence (P28335 33-458): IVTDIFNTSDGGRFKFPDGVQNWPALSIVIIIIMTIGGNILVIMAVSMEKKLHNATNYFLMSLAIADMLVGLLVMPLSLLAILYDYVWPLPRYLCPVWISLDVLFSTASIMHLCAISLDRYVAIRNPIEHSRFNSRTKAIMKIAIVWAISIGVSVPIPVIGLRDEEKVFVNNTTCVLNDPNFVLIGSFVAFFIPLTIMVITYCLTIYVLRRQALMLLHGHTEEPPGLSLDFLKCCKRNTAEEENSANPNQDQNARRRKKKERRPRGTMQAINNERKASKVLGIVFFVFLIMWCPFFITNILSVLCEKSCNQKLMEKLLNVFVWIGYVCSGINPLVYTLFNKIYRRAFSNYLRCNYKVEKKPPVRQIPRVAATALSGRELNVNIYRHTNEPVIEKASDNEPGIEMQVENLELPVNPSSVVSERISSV
# Description: as §1, §2
# [4] = target: Trasnporter, Dopamine (DAT) (Homo sapiens, UniProt Q01959); assay: Radioligand binding assay, Dopamine transporter
# Trasnporter, Dopamine (DAT), sequence (Q01959 whole entry): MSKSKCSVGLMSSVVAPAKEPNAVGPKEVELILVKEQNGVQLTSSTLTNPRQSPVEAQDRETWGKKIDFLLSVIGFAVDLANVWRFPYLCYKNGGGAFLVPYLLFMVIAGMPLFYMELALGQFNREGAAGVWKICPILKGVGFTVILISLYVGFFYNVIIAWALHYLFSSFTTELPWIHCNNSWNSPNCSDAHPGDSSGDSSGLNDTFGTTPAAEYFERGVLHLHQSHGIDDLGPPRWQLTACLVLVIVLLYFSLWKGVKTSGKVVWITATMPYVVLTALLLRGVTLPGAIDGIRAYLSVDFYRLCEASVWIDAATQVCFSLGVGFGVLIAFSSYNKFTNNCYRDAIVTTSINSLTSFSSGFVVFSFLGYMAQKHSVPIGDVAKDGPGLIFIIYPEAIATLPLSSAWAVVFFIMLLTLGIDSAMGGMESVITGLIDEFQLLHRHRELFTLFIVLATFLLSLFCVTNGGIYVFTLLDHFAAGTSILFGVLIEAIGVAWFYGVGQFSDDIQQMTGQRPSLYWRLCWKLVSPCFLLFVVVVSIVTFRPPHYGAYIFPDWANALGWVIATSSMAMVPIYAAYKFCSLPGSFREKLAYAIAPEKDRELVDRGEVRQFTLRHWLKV
# Description: as §2
# BALB/c mice [5] = assay: Acute toxicity, ip administration; format: in vivo; conditions: ip up to 30 mg/kg
# Method: […]. […] The body weight of the mice was determined up to 12 days after administration of the compounds.
# BALB/c mice [6] = assay: Open field test
# BALB/c mice [7] = assay: Elevated plus maze; conditions: 10 mg/kg (equimolar) ip 1 hr prior
# [8] = 10 mg/kg (equimolar) ip 1 hr prior
# [9] = 10 mg/kg (equimolar) ip 1 hr prior, p<0.001 vs controls
smiles,measurement,setting,value
"CN[C@H]1CC[C@@H](c2ccc(Cl)c(Cl)c2)c2ccc(C#CCCCO)cc21 [compound Ia, (1S-cis)-4-(3,4-dichlorophenyl)-7-(5-hydroxy-1-pentyn-1-yl)-1,2,3,4-tetrahydro-N-methyl-1-naphthalenamine hydroiodide]",IC50,Adrenergic α1B,562 nM
same,nH,Adrenergic α1B,1.08
same,inhibition at 1 µM,Adrenergic α1B; 1 μM,63%
same,Ki,Adrenergic α1B; read-out: K1,311 nM
same,IC50,Sigma σ1,837 nM
same,nH,Sigma σ1,0.627
same,inhibition at 3 µM,Sigma σ1; 3 μM,69%
same,Ki,Sigma σ1; read-out: K1,352 nM
same,IC50,[1],623 nM
same,nH,[1],0.977
same,inhibition at 1 µM,[1]; 1 μM,62%
same,Ki,[1]; read-out: K1,618 nM
same,IC50,[2],2600 nM
same,nH,[2],1.16
same,inhibition at 3 µM,[2]; 3 μM,51%
same,Ki,[2]; read-out: K1,1210 nM
same,IC50,Dopamine D1,2700 nM
same,nH,Dopamine D1,1.25
same,inhibition at 10 µM,Dopamine D1; 10 μM,84%
same,Ki,Dopamine D1; read-out: K1,1350 nM
same,IC50,Adrenergic α1A,4200 nM
same,nH,Adrenergic α1A,1.34
same,inhibition at 10 µM,Adrenergic α1A; 10 μM,73%
same,Ki,Adrenergic α1A; read-out: K1,1700 nM
same,IC50,[3],9160 nM
same,nH,[3],2.15
same,inhibition at 10 µM,[3]; read-out: % INH.,54%
same,Ki,[3]; read-out: K1,4800 nM
same,IC50,[4],< 300 nM
same,inhibition at 0.03 µM,[4]; 0.03 μM,51%
same,Ki,[4]; read-out: DAT final Ki,29 nM
same,survival,BALB/c mice [5],all of the corresponding animals survived
same,ratio (center/periphery),BALB/c mice [6]; [8],significantly increase
same,total time spent in the center (areas 2+3),BALB/c mice [6]; [8],significantly increase
same,frequency to the center,"BALB/c mice [6]; 10 mg/kg (equimolar) ip 1 hr prior, controls 1.23",1.35
same,distance moved,BALB/c mice [6]; [9],significantly increase
same,velocity,BALB/c mice [6]; [9],significantly increase
same,sedative effect accompanying the anxiolytic activity,BALB/c mice [6]; orally 90 min prior,not accompanied by a sedative effect
same,anti-anxiety effect,BALB/c mice [7],significant anti-anxiety effect
